Results published in PMC11588247, “Antimicrobial and antioxidant activities of peptide derived from turmeric plant (Curcuma longa L)” (PLOS ONE, 2024).
Ends that are not written are not given here.

How the values were obtained:
[1] = DPPH radical scavenging assay; settings: 10 μL sample + 190 μL 0.1 mM DPPH, 30 min dark, room temperature, absorbance 517 nm, ascorbic acid standard; hydrolysate at 100 μg/mL
Procedure: The DPPH radical scavenging activity of the sample was evaluated following the protocol by Muangrod et al. with slight modifications. Briefly, 190 μL of 0.1 mM DPPH was mixed with 10 μL of the sample or standard ascorbic acid in each well and incubated at room temperature in the dark for 30 minutes. The absorbance of the mixture was measured at 517 nm using a microplate reader (Synergy H1 Hybrid Multi-Mode Reader, Biotek, Winusky, VT, USA). The percentage inhibition of DPPH radical scavenging activity was calculated using the following equation: %DPPHinhibition=[(Acontrol−Asample)/Acontrol]×100 (2) where A control means the absorbance of the control that contained all reagents except the test samples, and A sample means the absorbance of the mixture (sample and 0.1 mM DPPH). Ascorbic acid was used as the standard. Results were expressed as μg ascorbic acid equivalent (μg AAE g^−1).

[2] = ABTS radical scavenging assay; settings: 10 μL sample + 190 μL ABTS solution, 5 min dark, absorbance 750 nm, ascorbic acid standard; hydrolysate at 100 μg/mL
Procedure: Radical scavenging antioxidant activity was determined according to the ABTS radical scavenging activity following the method described by Re et al. with slight modifications. Briefly, the solution of ABTS radical was prepared from the reaction between 7 mM ABTS (2,2-azino-bis (3-ethylbenzothiazoline-6-sulphonic acid) diammonium salt) and 2.45 mM ammonium persulphate. The resulting ABTS solution was diluted with distilled water to achieve an optical density of 0.7 at 750 nm. Then, a sample or standard of 10 μL was mixed with 190 μL of ABTS solution and incubated for 5 minutes in the dark. The absorbance was measured at 750 nm by a microplate reader (Synergy H1 Hybrid Multi-Mode Reader, Biotek, Winusky, VT, USA). Ascorbic acid was used as the standard.

[3] = FRAP (ferric ion-reducing antioxidant power) assay; settings: 10 μL sample + 190 μL FRAP reagent (acetate pH 3.6, TPTZ, FeCl3), 30 min dark, absorbance 593 nm, ascorbic acid standard; hydrolysate at 100 μg/mL
Procedure: The ferric ion-reducing antioxidant power assay was analyzed according to the method by Rumpf et al. with minor modifications. Briefly, the FRAP reagent was prepared from 300 mM sodium acetate (pH 3.6) and 10 mM TPTZ (2,4,6-tris (2-pyridyl)-s-triazine) in 40 mM HCl and 20 mM ferric chloride at the ratio of 10:1:1, respectively. Then, a 10 μL aliquot of the sample or standard was mixed with 190 μL of the FRAP reagent before incubating in the dark for 30 minutes. The absorbance was measured at 593 nm using a microplate reader (Synergy H1 Hybrid Multi-Mode Reader, Biotek, Winusky, VT, USA). Ascorbic acid (Sigma-Aldrich, Singapore) was used as the standard. Results were expressed as micrograms of ascorbic acid equivalent per gram (μg AAE g^−1).

[4] = system: Staphylococcus epidermidis (ATCC 12228); experiment: microbe, parasite or virus in culture; format: cell-based; settings: sample 100 μg/mL, 6 h at 37°C, MTT OD570 vs inoculated broth control; listed as Cur-14
Excerpt: (§1) Pathogenic microorganism composes of Escherichia coli (ATCC 25922), Staphylococcus aureus (ATCC 25923), Staphylococcus epidermidis (ATCC 12228), Bacillus subtilis (ATCC 6633), Bacillus cereus (ATCC 11778), Pseudomonas aeruginosa (ATCC 27853), Vibrio parahaemolyticus (ATCC 17802), Klebsiella pneumoniae (ATCC 27736), Acinetobacter baumannii (ATCC 19606), Enterobacter cloacae (ATCC 13047), Salmonella enterica (ATCC 13311), and Salmonella Typhi (ATCC 22842) were used in the experiments.
(§2) Bacteria were initially cultured on Tryptic Soy Agar (TSA) plates at 37°C for 12–16 hours. A single colony was transferred to Tryptic Soy Broth (TSB) and incubated at 37°C with gently agitation at 100 rpm, for an additional 12–16 hours. The bacterial concentration was adjusted to an optical density at 600 nm (OD600) of 0.05, corresponding to 4 x 10^7 CFU/mL, before being added to a 96-well plate (50 μL per well). Subsequently, 50 μL of protein hydrolysate or peptide was inoculated into each well at a final concentration of 100 μg/mL, and the mixture was incubated at 37°C with continuous shaking at 100 rpm for 6 hours. Wells with inoculated broth alone served as a negative control, while wells containing Ampicillin (100 μg/mL) served as a positive control. Following incubation, 25 μL of a 100 μg/mL MTT (3-(4,5-dimethylthiazol-2-yl)-2,5-diphenyltetrazolium bromide) solution was added to each well, thoroughly mixed, and incubated at room temperature for 4 hours. The optical density at 570 nm (OD570nm) was subsequently measured using a microplate reader (Synergy H1 Hybrid Multi-Mode Reader, Biotek, Winusky, VT, USA). The percentage of inhibition was calculated using the provided equation: [(OD570control–OD570test)/OD570control]×100 (1)

[5] = system: Staphylococcus aureus (ATCC 25923); experiment: microbe, parasite or virus in culture; format: cell-based; settings: sample 100 μg/mL, 6 h at 37°C, MTT OD570 vs inoculated broth control; listed as Cur-14
Excerpt: as §1, §2

[6] = system: Salmonella enterica (ATCC 13311); experiment: microbe, parasite or virus in culture; format: cell-based; settings: sample 100 μg/mL, 6 h at 37°C, MTT OD570 vs inoculated broth control; listed as Cur-14
Excerpt: as §1, §2

[7] = system: Acinetobacter baumannii (ATCC 19606); experiment: microbe, parasite or virus in culture; format: cell-based; settings: sample 100 μg/mL, 6 h at 37°C, MTT OD570 vs inoculated broth control; listed as Cur-14
Excerpt: as §1, §2

Sequence | DPPH radical scavenging activity (antioxidant activity ± SD) [1] [μg AAE g^−1] | ABTS radical-scavenging activity (antioxidant activity ± SD) [2] [μg AAE g^−1] | FRAP (antioxidant activity ± SD) [3] [μg AAE g^−1] | Inhibitory Percentage (Means±SD), Staphylococcus epidermidis ATCC 12228 [4] | Inhibitory Percentage (Means±SD), Staphylococcus aureus ATCC 25923 [5] | Inhibitory Percentage (Means±SD), Salmonella enterica ATCC 13311 [6] | Inhibitory Percentage (Means±SD), Acinetobacter baumannii ATCC 19606 [7]
PKVKILIL [Cur-4] | 0.77±0.01 | 0.15±0.00 | 1.08±0.09 |  |  |  | 
PLKLLLPL [Cur-7] | 0.74±0.02 | 0.15±0.00 | 1.04±0.00 |  |  |  | 
PLLLKLIV [Cur-2] | 0.75±0.03 | 0.13±0.00 | 1.05±0.01 | inhibited growth | inhibited growth | inhibited growth | inhibited growth
QIILLLLKP [Cur-9] | 0.70±0.00 | 0.07±0.00 | 1.04±0.02 |  |  |  | 
VHVLLLIL [Cur-10] | 0.75±0.04 | 0.30±0.01 | 1.04±0.00 |  |  |  | 
VKLKIPLLIL [Cur-3] | 0.67±0.00 | 0.08±0.00 | 1.04±0.00 |  |  |  | 
VLKKLLPLL [Cur-6] | 0.67±0.06 | 0.09±0.01 | 1.05±0.00 |  |  |  | 
